Measured values taken from patent US4122179A, “Acid addition salts of vincamine and apovincamine” (priority 1976, dated 1978).

Tests used:
[1] = LD50 / acute toxicity, intraperitoneal route; assay type: in vivo; conditions: i.p.; for Toxicity (Gleason): Gleason class in words, classes not defined
[2] = Hematic levels at different times after oral administration (absorption); assay type: in vivo, Wistar rat; conditions: 100 mg/kg expressed as vincamine/apovincamine, 5% carboxymethyl cellulose suspension
In short: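 Wistar rats dosed orally at 100 mg/kg (expressed as vincamine or apovincamine) as a suspension in 5% carboxymethyl cellulose. Blood levels measured chromatographically at 0, 30, 120, 240, 480 min, 10 h and 12 h to define absorption and time of maximum concentration.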

vertebral arteria = assay: Cerebral vasodilating activity: hematic flow at the vertebral arteria after i.v. administration; assay type: in vivo; conditions: i.v. (femoral vein), 5 mg/kg of vincamine/apovincamine, anesthetized dog, 4 animals per compound
In short: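 In anesthetized dogs, groups of 4 per compound, left vertebral artery blood flow recorded with periarterial electromagnetic flowmeters after i.v. dosing. Values are percent change in flow.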

Solubility = assay type: physicochemical; conditions: qualitative; for solubility in alcohol: alcohol (ethyl alcohol)

| Molecule | LD50 [1] [mg/kg] | Toxicity (Gleason) [1] | Max. conc. time ([2]; 100 mg/kg) [min] | % increase (percent variation of hematic flow, left vertebral arteria) (vertebral arteria; 5 mg/kg) [%] | solubility in alcohol (Solubility) | solubility in water (Solubility) | Max. conc. time [2] [min] | % increase (percent variation of hematic flow, left vertebral arteria) (vertebral arteria) [%] | solubility in the common (organic) solvents (Solubility; common organic solvents) |
| --- | --- | --- | --- | --- | --- | --- | --- | --- | --- |
| CC[C@@]12C=C(C(=O)OC)n3c4c(c5ccccc53)CCN(CCC1)[C@H]42 [Example 6.b, Apovincamine 2,5-dihydroxybenzoate] | 750 | modest | 240 | 30.9 | insoluble | insoluble |  |  |  |
| CC[C@@]12C=C(C(=O)OC)n3c4c(c5ccccc53)CCN(CCC1)[C@H]42 [Example 19.b, Apovincamine p-chlorophenoxyacetate] | 750 | modest | 480 | 28.4 |  | insoluble |  |  |  |
| CC[C@@]12C=C(C(=O)OC)n3c4c(c5ccccc53)CCN(CCC1)[C@H]42 [Example 9.b, Apovincamine clofibrate] | 800 | light | 480 | 28.3 | soluble | insoluble |  |  |  |
| Apovincamine alginate [Example 23.b] | 750 | modest |  |  | insoluble | insoluble | 60 | 38.0 |  |
| CC[C@@]12C=C(C(=O)OC)n3c4c(c5ccccc53)CCN(CCC1)[C@H]42 [Example 11.b, Apovincamine 4-acetamidobutyrate] | 1500 | light | 480 | 33.0 | insoluble | insoluble |  |  |  |
| CC[C@]12CCCN3CCc4c(n(c5ccccc45)[C@@](O)(C(=O)OC)C1)[C@@H]32 [Example 16.a, Vincamine acetylsalicylate] | 900 | modest | 20 | 31.7 |  |  |  |  | poorly soluble |
